The target of test [1] is T1, Human OX1 receptor (Homo sapiens (Human), UniProt O43613). Kind of test: [3H]-radioligand binding assay, OX1. To be noted: competition binding, membranes of SF21 cells, Ki by Cheng-Prusoff. From the text:
(§1) Cloning, Baculovirus generation, large-scale infection of SF21 cells and membrane preparation. Human OX1 or OX2 receptor were cloned into Invitrogen's (ThermoFisher Scientific, UK) Bac-to-Bac Baculovirus Expression System. P0 baculovirus was generated by transfecting SF9 cells with bacmid DNA using Cellfectin® II transfection reagent (ThermoFisher Scientific, UK, Catalog number 10362-100). Following P0 generation P1 virus was then generated ready for large scale infection and membrane preparation. SF21 cells were grown in expression medium ESF921 (Expression Systems, USA, catalog number 96-001-01) supplemented with 10% heat-inactivated FBS and 1% Pen/Strep and were infected at a cell density of 2.5×10^6 cells/mL and a multiplicity of infection of 1.0 for both human OX1R and OX2R. Incubation was carried out at over 48 h in a shaking incubator set at 27° C. The cell culture was then centrifuged at 2,500 rcf for 10 min at 4° C. The pellets were resuspended in cold PBS supplemented with Roche's Complete EDTA-free protease inhibitor cocktail tablets (Roche Applied Sciences, catalog number 05056489001), 1 mM PMSF and 1 mM EDTA. The resuspended cell paste was then centrifuged at 3,273 rcf for 12 min at 4° C. The supernatant was discarded and the pellet frozen at −80° C. The cell pellet from a 4 L culture was resuspended in buffer containing 50 mM HEPES pH 7.5, 150 mM NaCl, 8 Roche EDTA-Free protease inhibitor cocktail tablets and 1 mM PMSF. The suspension was left stirring at rt for 1 h and then homogenised for 90 s at 9,500 rpm using a VDI 25 (VWR, USA) homogeniser. The cells were then lysed using a Microfluidiser processor M-110L Pneumatic (Microfluidics, USA) at 60 PSI and membranes collected by ultracentrifugation at 204.7 k×g for 1 h. The supernatant was discarded and the pellet was resuspended and homogenised in 90 s at 9,500 rpm in 50 mL (25 mL for each 2 L culture) of buffer containing 50 mM Hepes pH 7.5, 150 mM NaCl, 3 Roche EDTA-free protease inhibitor cocktail tablets and 1 mM PMSF. The resulting membranes were then stored at −80° C.
(§2) [^3H]-radioligand binding assay. After thawing, membrane homogenates were resuspended in the binding buffer (8.5 mM HEPES, pH 7.4, 1.3 mM CaCl2, 1.2 mM MgSO4, 118 mM NaCl, 4.7 mM KCl, 4 mM NaHCO3, 1.2 mM KH2PO4, 11 mM glucose) to a final assay concentration of 6.4 μg (OX1) or 1.4 μg (OX2) protein per well. Saturation isotherms were determined by the addition of various concentrations (0-30 nM) of [^3H]-4-(2,6-difluoro-4-methoxybenzyl)-2-(5,6-dimethoxypyridin-3-yl)-2H-1,2,4-benzothiadiazin-3(4H)-one 1,1-dioxide (Christopher et al, MedChemComm., 2015, 6, 947-955) in a total reaction volume of 250 μL for 90 min at rt. At the end of the incubation, membranes were filtered onto a 96-well GF/B filter pre-incubated with 0.5% polyethylenimine, with a Tomtec cell harvester and washed 5 times with 0.5 mL distilled water. Non-specific binding (NSB) was measured in the presence of 3.33 μM [4-(5-chloro-1,3-benzoxazol-2-yl)-7-methyl-1,4-diazepan-1-yl][5-methyl-2-(2H-1,2,3-triazol-2-yl)phenyl]methanone (Wertz et al, Angew. Chem. Int. Ed., 2011, 50, 11511-11515). Radioactivity on the filter was counted (1 min) on a Microbeta radiometric plate counter (Perkin Elmer) after addition of 50 μL of scintillation fluid (LabLogic: Part #SG-BXX-14). […] IC50 values were derived from the inhibition curve and the equilibrium dissociation constant (Ki) values were calculated using the Cheng-Prusoff equation.

The target in test [2] is T2, Human OX2 receptor (Homo sapiens (Human), UniProt O43614). Put plainly: [3H]-radioligand binding assay, OX2. To be noted: competition binding, membranes of SF21 cells, Ki by Cheng-Prusoff.
Source text: as §1, §2

Test [3] deals with T1, Human OX1 receptor. Put plainly: IPone accumulation assay, CHO cells expressing OX1. It is filed as cell-based. To be noted: antagonism of orexin A (EC80 ~20 nM)-induced inositol phosphate turnover, read-out: fpKb average OX1 (converted). On the procedure:
Generation of CHO stable cell lines expressing the human OX1R and OX2R. Stable cell lines for the human OX1R and OX2R receptors were generated through the transfection of CHO cells using the transfection reagent Genejuice (Novagen number 70967) and cDNA coding for either the human OX1R or OX2R. Cells were cultured in Sigma Nutrient Mixture F-12 Ham media (catalog number N6658) supplemented with 10% heat-inactivated FBS. Forty-eight hours after transfection, cells were harvested and placed under geneticin selection by culturing in Sigma Nutrient Mixture F-12 Ham media supplemented with 10% heat-inactivated FBS and geneticin (ThermoFisher Catalog number: 10131035). Selection of the final stable clone for each receptor was made on the basis of receptor expression, assay signal to noise and robustness though increasing passage. Selected clones for the human OX1R and OX2R were then frozen down into liquid nitrogen using Cell Freezing Medium-DMSO (Sigma-Aldrich catalog number: C6164).
(§3) IPone accumulation assay. A CHO cell line stably expressing either human OX1 or OX2 receptor was used with the IPone HTRF assay kit (CisBio: Part #62IPAPEJ) to measure receptor activation. The assay was optimised to measure the ability (potency; fpKb) of antagonists to reduce agonist (orexin A)-induced inositol phosphate turnover. Briefly, cells were plated onto half area 96-well white walled plates at a density of 12,500 cells/well. Sixteen hours post-plating cell growth media was replaced with antagonist concentration-response curve diluted in stimulation buffer (supplied with the kit). Cells were incubated in a humidified incubator (37° C.) for 30 min before an EC80 challenge concentration (˜20 nM (OX1) and 40 nM (OX2)) of orexin A (Tocris catalogue number 1455). After 30 min stimulation in a humidified incubator (37° C.) the assay was terminated by the addition of detection mixture as per manufacturer's instructions. The concentration of compound which reduced orexin-A stimulated turnover of inositol phosphates by 50% (IC50) was calculated by fitting to a four parameter sigmoidal dose response curve. The IC50 values were converted to fpKB values using the orexin A pEC50 value estimated on each plate as well as the challenge concentration interpolated from the orexin A control curve.

Test [4] deals with T2, Human OX2 receptor. Put plainly: IPone accumulation assay, CHO cells expressing OX2. It counts as cell-based. The note with it: antagonism of orexin A (EC80 40 nM)-induced inositol phosphate turnover, read-out: fpKb average OX2 (converted). On the procedure:
as §3, with “Generation of CHO stable cell lines expressing the human OX1R and OX2R. Stable cell lines for the human OX1R and OX2R receptors were generated through the transfection of CHO cells using the transfection reagent Genejuice (Novagen number 70967) and cDNA coding for either the human OX1R or OX2R. Cells were cultured in Sigma Nutrient Mixture F-12 Ham media (catalog number N6658) supplemented with 10% heat-inactivated FBS. Forty-eight hours after transfection, cells were harvested and placed under geneticin selection by culturing in Sigma Nutrient Mixture F-12 Ham media supplemented with 10% heat-inactivated FBS and geneticin (ThermoFisher Catalog number: 10131035). Selection of the final stable clone for each receptor was made on the basis of receptor expression, assay signal to noise and robustness though increasing passage. Selected clones for the human OX1R and OX2R were then frozen down into liquid nitrogen using Cell Freezing Medium-DMSO (Sigma-Aldrich catalog number: C6164). IPone accumulation” for “IPone accumulation”, “(CisBio: Part #62[…]) to measure” for “(CisBio: Part #62IPAPEJ) to measure”, “challenge concentration ( 20 nM (OX1)” for “challenge concentration (˜20 nM (OX1)”

Molecules are shown by their SMILES.

T2 sequence (O43614 whole entry): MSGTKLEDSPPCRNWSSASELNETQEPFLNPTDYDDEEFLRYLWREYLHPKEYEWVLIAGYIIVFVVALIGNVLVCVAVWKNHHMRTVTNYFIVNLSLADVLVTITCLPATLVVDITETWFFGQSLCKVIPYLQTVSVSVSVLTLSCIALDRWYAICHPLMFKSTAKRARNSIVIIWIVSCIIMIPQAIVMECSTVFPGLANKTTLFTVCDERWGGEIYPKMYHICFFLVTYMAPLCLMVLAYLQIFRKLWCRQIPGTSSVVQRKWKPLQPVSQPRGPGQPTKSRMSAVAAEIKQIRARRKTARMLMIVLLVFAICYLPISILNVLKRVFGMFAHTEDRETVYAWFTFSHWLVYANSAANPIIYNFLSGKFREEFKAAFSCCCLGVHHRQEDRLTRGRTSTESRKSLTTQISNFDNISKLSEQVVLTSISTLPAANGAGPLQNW
T1 sequence (O43613 whole entry): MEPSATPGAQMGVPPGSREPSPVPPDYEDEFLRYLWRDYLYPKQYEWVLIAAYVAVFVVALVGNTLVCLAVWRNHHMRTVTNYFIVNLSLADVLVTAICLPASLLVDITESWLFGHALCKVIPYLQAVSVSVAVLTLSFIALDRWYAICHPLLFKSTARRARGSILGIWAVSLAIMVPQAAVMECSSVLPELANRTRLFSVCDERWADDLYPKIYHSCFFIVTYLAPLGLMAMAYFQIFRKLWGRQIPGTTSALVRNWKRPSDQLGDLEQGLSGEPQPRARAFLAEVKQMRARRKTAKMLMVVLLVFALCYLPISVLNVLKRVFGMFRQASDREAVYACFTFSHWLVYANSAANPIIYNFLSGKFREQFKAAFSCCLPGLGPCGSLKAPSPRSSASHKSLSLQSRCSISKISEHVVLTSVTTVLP

On to `CC(=O)Nc1ccc(-n2nccn2)c(C(=O)N[C@H]2CCC[C@@H]2COc2ccc(F)c(F)c2)n1` [Example 9, 6-acetamido-N-[(1S,2S)-2-[(3,4-difluorophenoxy)methyl]cyclopentyl]-3-(triazol-2-yl)pyridine-2-carboxamide], for which, at Human OX1 receptor [1], the “pKi average OX1” value amounted to 8.2. Also, the “pKi average OX2” value on Human OX2 receptor [2] is 5.9. Moreover, the Kb was 25.1 nM at Human OX1 receptor [3] and over 200 nM at Human OX2 receptor [4].

For `O=C(N[C@H]1CCC[C@@H]1COc1ccc(F)cc1)c1nc(NCC(F)F)ccc1-n1nccn1` [Example 19, 6-(2,2-difluoroethylamino)-N-[(1S,2S)-2-[(4-fluorophenoxy)methyl]cyclopentyl]-3-(triazol-2-yl)pyridine-2-carboxamide], the “pKi average OX1” value at Human OX1 receptor [1] was found to be 8.8. In addition, on Human OX2 receptor [2], the “pKi average OX2” value stood at 6.6. The Kb was 15.8 nM on Human OX1 receptor [3] and over 501 nM on Human OX2 receptor [4].

Turning to `CC(=O)Nc1ccc(-n2nccn2)c(C(=O)N(C(C)C)[C@H]2CCC[C@@H]2COc2ccc(F)cc2)n1` [Example 7, 6-acetamido-N-[(1S,2S)-2-[(4-fluorophenoxy)methyl]cyclopentyl]-N-isopropyl-3-(triazol-2-yl)pyridine-2-carboxamide], the “pKi average OX1” value at Human OX1 receptor [1] is on record as 8.1. On Human OX2 receptor [2], the “pKi average OX2” value is recorded as under 5.3. In addition, the Kb is 25.1 nM at Human OX1 receptor [3] and over 794 nM at Human OX2 receptor [4].

Regarding `CC(=O)Nc1cc(F)c(-n2nccn2)c(C(=O)N[C@H]2CCC[C@@H]2COc2ccc(F)cc2)c1` [Example 1, 5-acetamido-3-fluoro-N-[(1S,2S)-2-[(4-fluorophenoxy)methyl]cyclopentyl]-2-(triazol-2-yl)benzamide], the “pKi average OX1” value on Human OX1 receptor [1] is given as 9.0. For the same molecule, the “pKi average OX2” value on Human OX2 receptor [2] turned out to be 7.3. Besides, the Kb is 0.794 nM on Human OX1 receptor [3] and over 63.1 nM at Human OX2 receptor [4].

With `O=C(N[C@H]1CCC[C@@H]1COc1ccc(F)cc1)c1nc(NC(=O)C(F)F)ccc1-n1nccn1` [Example 11, 6-[(2,2-difluoroacetyl)amino]-N-[(1S,2S)-2-[(4-fluorophenoxy)methyl]cyclopentyl]-3-(triazol-2-yl)pyridine-2-carboxamide], the “pKi average OX1” value at Human OX1 receptor [1] was found to be 7.9. Further, the “pKi average OX2” value at Human OX2 receptor [2] is reported as under 5.8. Further, the Kb is 31.6 nM at Human OX1 receptor [3] and over 1000 nM at Human OX2 receptor [4].

For `CC(=O)Nc1ccc(-c2ncccn2)c(C(=O)N(C)[C@H]2CCC[C@@H]2COc2ccc(F)cc2)n1` [Example 18, 6-acetamido-N-[(1S,2S)-2-[(4-fluorophenoxy)methyl]cyclopentyl]-N-methyl-3-pyrimidin-2-yl-pyridine-2-carboxamide], at Human OX1 receptor [1], the “pKi average OX1” value is recorded as 8.6. On Human OX2 receptor [2], the “pKi average OX2” value is 6.8. The Kb at Human OX1 receptor [3] was 0.631 nM; at Human OX2 receptor [4] it was over 501 nM.

As for `CC(=O)Nc1ccc(-n2nccn2)c(C(=O)N[C@H]2CCC[C@@H]2COc2ccc(Cl)cc2)n1` [Example 6, 6-acetamido-N-[(1S,2S)-2-[(4-chlorophenoxy)methyl]cyclopentyl]-3-(triazol-2-yl)pyridine-2-carboxamide], the “pKi average OX1” value on Human OX1 receptor [1] was 8.1. Further, the “pKi average OX2” value on Human OX2 receptor [2] is recorded as under 5.2. Also, the values for the Kb at Human OX1 receptor [3] and at Human OX2 receptor [4] were 7.94 nM and over 631 nM, respectively.

For `O=C(N[C@H]1CCC[C@@H]1COc1ccc(F)cc1)c1nc(NCCO)ccc1-n1nccn1` [Example 20, N-[(1S,2S)-2-[(4-fluorophenoxy)methyl]cyclopentyl]-6-(2-hydroxyethylamino)-3-(triazol-2-yl)pyridine-2-carboxamide], at Human OX1 receptor [1], the “pKi average OX1” value is 8.4. For the same molecule, the “pKi average OX2” value at Human OX2 receptor [2] was determined as 5.8. For the same molecule, the Kb at Human OX1 receptor [3] is 7.94 nM; on Human OX2 receptor [4] it was over 501 nM.

For `CC(=O)Nc1ccc(-c2ncccn2)c(C(=O)N[C@H]2CCC[C@@H]2COc2ccc(F)cc2)n1` [Example 14, 6-acetamido-N-[(1S,2S)-2-[(4-fluorophenoxy)methyl]cyclopentyl]-3-pyrimidin-2-yl-pyridine-2-carboxamide], the “pKi average OX1” value at Human OX1 receptor [1] was found to be 8.3. On Human OX2 receptor [2], the “pKi average OX2” value came to 6.0. In addition, the Kb at Human OX1 receptor [3] is 3.98 nM; at Human OX2 receptor [4], over 398 nM.

On to `CC(=O)Nc1ccc(-c2ncccn2)c(C(=O)N[C@H]2CCC[C@@H]2COc2ccc(Cl)cc2)n1` [Example 15, 6-acetamido-N-[(1S,2S)-2-[(4-chlorophenoxy)methyl]cyclopentyl]-3-pyrimidin-2-yl-pyridine-2-carboxamide], for which the “pKi average OX1” value at Human OX1 receptor [1] is recorded as 8.7. The “pKi average OX2” value on Human OX2 receptor [2] came to 6.2. Also, the Kb at Human OX1 receptor [3] was 3.98 nM; on Human OX2 receptor [4], over 631 nM.

The record behind these values is US12240825B2, “Oxexin 1 receptor antagonists” (Heptares Therapeutics Limited, priority 2019, dated 2025).
